{"source": "patent US20240199538A1", "about": "“Novel Chlorhexidine Salts and Related Compositions and Methods” (Colgate-Palmolive Company, priority 2022, published 2024)", "experiment": "CHG and CHG-SLS mixture aging study, CHX degradation products by GC-MS", "format": "physicochemical", "settings": "aqueous 20% CHG solution, 60° C. oven", "procedure": "Sample preparation for CHX degradation analysis by using GCMS analysis: Both aged solutions are taken from the 60° C.oven. They are diluted at 1:3.5 ratios with methanol. Both solutions are filtrated with a 0.20 um PTFE filter, respectively, then they are diluted again at a 1:10 dilution ratio with methanol and then transferred into a ROBO autosampler vials for GC-MS analysis. The gas chromatography system 6890N with 5972 MS detector plus Gerstel MPS-2 autosampler (Agilenet Technologies, Santa, Clara, CA, USA) is used for detection of CHX degradation products. Separation is accomplished using GC column of HP-5MS (30 m×0.25 mm×0.25 um, length×inside diameter×film thickness, Agilent Technologies). The 1 μL sample is injected with the splitless mode. The oven temperature is initially held at 80° C.for 1 min. Thereafter the temperature is raised at 6° C./min until 300° C.and held for 2.33 min. Total running time is 40 minutes. Helium is used as the carrier gas and delivered at a constant flow rate at 1 mL/min (the pressure at 9.38 psi and velocity at 37 cm/sec). The injector temperature is set at 250° C. and the interface temperature between GC oven and MS detector is250° C. […]", "data": [{"compound": "N=C(NCCCCCCNC(=N)NC(=N)Nc1ccc(Cl)cc1)NC(=N)Nc1ccc(Cl)cc1.O=C(O)[C@H](O)[C@@H](O)[C@H](O)[C@H](O)CO.O=C(O)[C@H](O)[C@@H](O)[C@H](O)[C@H](O)CO", "note": "[CHG, chlorhexidine gluconate]", "values": [{"measurement": "Peak integration for CHX degradation product at 3 weeks", "setting": "3 weeks", "result": 523490}, {"measurement": "Peak integration for CHX degradation product at 6 weeks", "setting": "6 weeks", "result": 7560037}]}]}
